Patent US10246463B2, “Hypoxia-inducible factor 1 (HIF-1) inhibitors” (The United States of America, as represented by the …, priority 2015, dated 2019)
Values after ≈ are worked out from the molar mass of the structure shown. Values joined by “and” are separate entries in the source; they are usually repeats but may differ in a detail not shown here. Equal entries are not always repeated. Where two headings read alike, the source gives them in different places. Blank lines part the entries; values can stand above or below the molecule they belong to.

Tests used:
[1] = biological target: T1, p300 (CH1) / HIF-1α (C-TAD) interaction (Homo sapiens, UniProt Q09472+Q16665); assay: p300 CH1 / HIF-1α C-TAD binding assay (DELFIA, europium anti-GST); details: for IC50: dose-response format of the screening assay
T1 construct: GST-p300-CH1 (aa 323-423); synthetic biotinylated HIF-1αC-TAD (aa 786-826; Peptide Protein Research Ltd., Fareham, UK)
T1 sequence (Q09472 323-423): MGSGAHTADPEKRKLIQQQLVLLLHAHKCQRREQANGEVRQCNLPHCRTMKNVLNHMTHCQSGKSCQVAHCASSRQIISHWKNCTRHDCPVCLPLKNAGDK
T1 sequence (Q16665 786-826): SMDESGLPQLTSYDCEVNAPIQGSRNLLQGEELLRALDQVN
Method: Binding of soluble CH1 to the immobilized C-TAD was measured by the fluorescence of a europium-tagged anti-GST antibody.
Bound GST-CH1 was detected using a europium-labeled antibody to GST (PerkinElmer Life Sciences). […] Plates were washed four times with TBST (50 mM Tris, 150 mM NaCl, 0.05% Tween 20, pH 8.0) buffer. […] After 2 h, plates were washed four times in TBST. DELFIA enhancement solution (PerkinElmer Life Sciences) was added and plates were placed on a rocker for 30 min, before reading with a Victor3 plate reader (PerkinElmer Life Sciences) or a Pherastar Plate Reader (BMG Labtech), using the europium setting under time-resolved fluorescence. Values were corrected for background and expressed as a percentage of controls (DMSO) to provide the percentage of CH1 binding.

[2] = system: P. falciparum D6 (chloroquine sensitive); assay: Antimalarial activity, plasmodial LDH assay, D6 strain; format: cell-based; details: for IC50: Plasmodium falciparum, read-out: IC50 against D6
Method: (§1) The antimalarial activity was determined against chloroquine sensitive (D6) and chloroquine resistant (W2) strains of P. falciparum by measuring plasmodial LDH (lactate dehydrogenase) activity according to the procedure of Makler and Hinrichs (Am. J. Trop. Med. Hyg. 1993, 48:205). A suspension of red blood cells infected with D6 or W2 strain of P. falciparum (200 μL, with 2% parasitemia and 2% hematocrit in RPMI 1640 medium supplemented with 10% human serum and 60 μg/mL Amikacin) was added to the wells of a 96-well plate containing 10 μL of serially diluted samples (plant extracts, column fractions or pure compounds). The plate was incubated at 37° C., for 72 h in a modular incubation chamber with 90% N2, 5% O2, and 5% CO2. Parasitic LDH activity was determined by mixing 20 μL of the incubation mixture with 100 μL of the Malstat reagent and incubating at room temperature for 30 min Twenty microliters of a 1:1 mixture of NBT/PES (nitro blue tetrazolium/phenazine ethosulfate) (Sigma, St. Louis, Mo.) was then added and the plate was further incubated in the dark for 1 h. The reaction was stopped by adding 100 μL of a 5% acetic acid solution and the absorbance was read at 650 nm. Artemisinin and chloroquine were included as the drug controls. IC50 values were computed from the dose response curves of growth inhibition.

[3] = system: P. falciparum W2 (chloroquine resistant); assay: Antimalarial activity, plasmodial LDH assay, W2 strain; format: cell-based; details: for IC50: Plasmodium falciparum, read-out: IC50 against W2
Method: as §1

[4] = Stability in NMR solvent; format: physicochemical
[5] = system: NCI-60 cell line; assay: NCI-60 cell line anticancer screen; format: cell-based; details: standard initial concentration of 40 μM
[6] = system: HIF-1α activation in HCT116 cells; assay: HRE luciferase reporter of HIF-1α activation in HCT116 cells under anoxic conditions; format: cell-based; details: FIG. 7
Method: Activation was monitored via a hypoxia response element (HRE) luciferase signal. When HIF-1α is activated, it results in an increased HRE luciferase signal. […] Data were analyzed using an ordinary one-way ANOVA with Dunnett's multiple comparisons test (reference group: DMSO.H). * P≤0.05, ** P≤0.01, *** P≤0.0001.

[7] = pKa determination by UV-Vis analysis at varied pH; format: physicochemical; details: aqueous buffers at varied pH, 0.1% DMSO, read-out: pKa of the titratable proton
Method: The cuvettes were allowed to equilibrate for 1 h before a UV-Vis curve was obtained. The pKa for 1 was determined by fitting Δ abs at 394 and 440 nm to a polynomial curve, as described previously (Yapici et al., J. Am. Chem. Soc. 2015, 137:1073-1080).

[8] = system: 456 protein kinase enzymes; assay: commercial panel of 456 protein kinase enzymes (DiscoverRx); format: binding
Source text: (§2) In an effort to evaluate a broader range of potential activities of interest, compound 1 was screened against a commercial panel of 456 protein kinase enzymes and 32 bromodomain proteins (DiscoverRx, San Diego, Calif.), and it had no activity against any of these targets.

[9] = system: 32 bromodomain proteins; assay: commercial panel of 32 bromodomain proteins (DiscoverRx); format: binding
Source text: as §2

[10] = system: HCT116 cells; assay: CCK-8 cytotoxicity in HCT116 cells under hypoxic conditions; format: cell-based; details: 18 h treatment, hypoxic conditions (0.5% O2), FIG. 8
Source text: Results are presented as the average cell viability number (% hypoxic control) of triplicate experiments ±S.E.M. (n=3-4).

[11] = read-out: IC50, blocking binding of soluble CH1 to immobilized C-TAD

inhibition of CH1 (p300)/C-TAD (HIF-1α) interaction ([1]; even at high dose): no inhibition
SMILES: OC1(c2ccccc2)N=C2N=CC=C3c4ccccc4N=C1N32 (stereo not drawn) [EA-1]

IC50 ([2]; D6, growth inhibition, 72 h): 0.0072 µg/mL (≈ 0.0255 µM) | IC50 ([3]; W2, growth inhibition, 72 h): 0.0041 µg/mL (≈ 0.0145 µM)
SMILES: C[C@@H]1CC[C@H]2[C@@H](C)C(=O)O[C@@H]3O[C@@]4(C)CC[C@@H]1[C@]32OO4 [artemisinin, reference compound]

IC50 [1, 11]: ~75 µM | IC50 ([2]; D6, growth inhibition, 72 h): 1.7 µg/mL (≈ 3.49 µM) | IC50 ([3]; W2, growth inhibition, 72 h): 0.9 µg/mL (≈ 1.85 µM) | stability in DMSO-d6 [4]: somewhat unstable
SMILES: COc1ccc(C2(c3nc(N)[nH]c3-c3ccc(O)cc3)N=C3N=CC=C4c5ccccc5N=C2N43)cc1 (stereo not drawn) [Eudistidine C, eudistidine C]
% growth of D6 strain of P. falciparum ([2]; 528.89 ng/mL): 91% | % growth of D6 strain of P. falciparum ([2]; 1586.67 ng/mL): 56% | % growth of D6 strain of P. falciparum ([2]; 4760 ng/mL): 9% | % growth of W2 strain of P. falciparum ([3]; 528.89 ng/mL): 75% | % growth of W2 strain of P. falciparum ([3]; 1586.67 ng/mL): 22% | % growth of W2 strain of P. falciparum ([3]; 4760 ng/mL): 6%

SMILES: CCN(CC)CCCC(C)Nc1ccnc2cc(Cl)ccc12 (stereo not drawn) [chloroquine, reference compound]
IC50 ([2]; D6, 72 h): 0.0154 µg/mL (≈ 0.0481 µM) | IC50 ([3]; W2, 72 h): 0.161 µg/mL (≈ 0.503 µM)

inhibition of HIF-1α binding to p300, comparison of salt forms and natural/synthetic material ([1]; FIGS. 5A-5E, 6A-6C, listed as natural eudistidine A, free base): similarly inhibit | IC50 [1, 11]: ~75 µM and 75 µM | IC50 ([2]; D6, growth inhibition, 72 h): 0.77 µg/mL (≈ 2.33 µM) | IC50 ([3]; W2, growth inhibition, 72 h): 0.58 µg/mL (≈ 1.76 µM) | pKa [7]: 5.1 ± 0.1 | activity against 456 protein kinase enzymes [8]: no activity
SMILES: COc1ccc(C2(O)N=C3N=CC=C4c5ccccc5N=C2N43)cc1 (stereo not drawn) [Eudistidine A, eudistidine A]
cytotoxic activity in NCI-60 screen [5]: no significant cytotoxic activity | blocking of HIF-1α activation (HRE luciferase signal) [6]: block HIF-1α activation | % growth of D6 strain of P. falciparum ([2]; 528.89 ng/mL): 72% | % growth of D6 strain of P. falciparum ([2]; 1586.67 ng/mL): 6% | % growth of D6 strain of P. falciparum ([2]; 4760 ng/mL): 2% | % growth of W2 strain of P. falciparum ([3]; 528.89 ng/mL): 55% | % growth of W2 strain of P. falciparum ([3]; 1586.67 ng/mL): 1% | % growth of W2 strain of P. falciparum ([3]; 4760 ng/mL): 1% | activity against 32 bromodomain proteins [9]: no activity | CCK-8 cytotoxicity/growth inhibitory activity [10]: only modest cytotoxicity/growth inhibitory activity

inhibition of CH1 (p300)/C-TAD (HIF-1α) interaction ([1]; at a high dose of 250 μM): no inhibition
SMILES: O=c1nc2nccc3c4ccccc4nc1N23 [Eudistidine B, eudistidine B]

IC50 ([1]; read-out: IC50, CH1 (p300)/C-TAD (HIF-1α) interaction (converted)): ~290 µM
SMILES: O=C(O)c1ccc(C2(O)N=C3N=CC=C4c5ccccc5N=C2N43)cc1 (stereo not drawn) [EA-2]
